# Data reported in patent publication US6593352B2, “Substituted anthranilic acids, their use as a medicament or diagnostic, and medicament comprising them, and a pharmaceutical combination preparation containing a sodium/hydrogen exchange (NHE) blocker” (Aventis Pharma Deutschland GmbH, priority 2000, dated 2003).
# Columns and labels:
# heart form of human NBC1 = molecular target: T1, heart form of human NBC1 (Homo sapiens, UniProt Q9Y6R1); experiment: NBC activity measurement (pHi recovery after acid load, BCECF, FLIPR); type: cell-based; conditions: residual NBC activity at inhibitor concentration of 10 μM; CHO K1 cells transfected with heart form of human NBC1; NHE and NCBE blocked; duplicate determinations
# T1 construct: expressed in transfected cells
# T1 sequence (Q9Y6R1 1-1079): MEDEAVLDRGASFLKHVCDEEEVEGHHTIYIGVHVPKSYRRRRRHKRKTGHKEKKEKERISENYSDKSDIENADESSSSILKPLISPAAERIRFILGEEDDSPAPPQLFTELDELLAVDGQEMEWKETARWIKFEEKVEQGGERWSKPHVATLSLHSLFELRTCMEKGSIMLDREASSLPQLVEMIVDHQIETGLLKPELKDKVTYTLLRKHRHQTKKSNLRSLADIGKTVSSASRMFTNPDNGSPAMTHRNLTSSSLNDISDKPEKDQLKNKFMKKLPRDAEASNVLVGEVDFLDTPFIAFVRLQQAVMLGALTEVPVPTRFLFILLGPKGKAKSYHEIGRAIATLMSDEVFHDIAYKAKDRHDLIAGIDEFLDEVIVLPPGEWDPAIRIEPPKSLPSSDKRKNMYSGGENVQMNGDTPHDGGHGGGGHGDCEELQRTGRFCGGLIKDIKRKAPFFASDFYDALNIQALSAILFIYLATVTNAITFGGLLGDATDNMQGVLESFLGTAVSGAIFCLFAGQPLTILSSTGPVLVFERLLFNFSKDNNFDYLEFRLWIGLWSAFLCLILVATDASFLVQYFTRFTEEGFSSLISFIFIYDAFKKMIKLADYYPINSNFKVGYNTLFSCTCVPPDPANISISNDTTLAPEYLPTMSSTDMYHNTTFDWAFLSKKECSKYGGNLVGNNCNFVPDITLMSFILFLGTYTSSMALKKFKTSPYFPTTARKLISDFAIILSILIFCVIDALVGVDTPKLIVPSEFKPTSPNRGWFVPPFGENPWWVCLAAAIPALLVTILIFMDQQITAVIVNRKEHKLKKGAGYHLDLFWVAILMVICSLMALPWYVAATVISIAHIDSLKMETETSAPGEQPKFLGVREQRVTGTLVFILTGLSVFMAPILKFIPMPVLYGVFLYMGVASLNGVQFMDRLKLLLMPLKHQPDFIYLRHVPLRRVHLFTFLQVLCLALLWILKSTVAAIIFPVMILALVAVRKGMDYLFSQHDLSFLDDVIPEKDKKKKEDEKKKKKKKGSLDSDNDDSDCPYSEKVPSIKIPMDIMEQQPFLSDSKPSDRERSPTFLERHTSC
# From the text: Firstly, the heart form of human NBC1 was cloned by RT-PCR. After confirmation of the sequence, the corresponding cDNAs were cloned into the vector pcDNA3.1+, which contains the neo gene as a selection marker for eukaryotic cells. For the amplification of the human heart form of NBC1, human heart mRNA (Clontech, Palo Alto, Calif., USA) was amplified using primers which cover the area in which the heart form differs from the kidney form. The heart form in this case differs only at the 5′ end of the coding sequence. The area coding for the first 41 amino acids of the kidney form is replaced in the heart form by an area coding for 85 amino acids (positions 118-370 from Abukadze et al., J. Biol. Chem. 273,17689-17695 (1998) or positions 45-294 from Choi et al., Am. J. Physiol. Cell Physiol. 276, C576-C584 (1999) replace positions 150-270 from Burnham et al. (see above.), J. Biol. Chem. 272, 19 111-19 114 (1997). The product of the PCR reaction was first cloned into the vector pCR2.1 and, after verification of the sequence, cloned into the cDNA of the kidney form of NBC1 by means of cleavage sites introduced by means of the PCR reaction. The construct obtained was checked for correct incorporation of the human heart NBC1-cDNA by sequencing. The plasmids obtained for the heart form of human NBC1 were transfected by means of the LipofectAmine™ reagent of the company LifeTechnologies (Gaithersburg, Md., USA) into the cell line CHO K1 (ovary cells of the Chinese hamster), which has no measurable NBC activity. After selection for transfected cells by means of growth in G418-containing medium (only cells which have obtained a neo gene by transfection can survive under these conditions), individual cells were isolated and cultured. Using the test described below, cell clones were identified in FLIPR which have a clear NBC activity. The best cell lines were used for the further tests and, to avoid a loss of the transfected sequence, cultured in G418-containing medium under continuous selection pressure.
# For the determination of the inhibitory activity of the active compounds on the heart form of human NBC 1, a test was constructed which represents a further development of the assay constructed for the testing of inhibitors of NCBE (Na^+dependent Cl^−/HCO3− exchanger) (EP 0 903 339) based on the acid load method (Sardet et al., Cell 56, 271-280 (1989); Faber et al., Cell. Physiol. Biochem. 6, 39-49 (1996). In this test, the recovery of the intracellular pH (pHi) after prior acidification is determined under conditions in which the NBC is active, the other pHiregulating systems of the CHO cells such as NHE (Na^+/H^+ exchanger) and NCBE (Na^+-dependent Cl^−/HCO3− exchanger) are blocked, however, by specific inhibitors. In this way, it is ensured that the recovery of the intracellular pH observed is based on the activity of NBC1.
# The transfected cells were inoculated into 96 well microtiter plates in a density of about 15,000 cells/well in 200 μl of growth medium and incubated overnight at 37° C. in a CO2 incubator. The intracellular pH of the transfected cells was determined using the pH-sensitive fluorescent dye BCECF (Molecular Probes (Eugene, Oreg., USA), the precursor BCECF-AM is employed). The cells were first loaded with BCECF-AM. The growth medium of the cells inoculated on the day before was manually removed, since the fetal calf serum present in the medium could interfere with the BCECF staining. For staining, 100 μl of NH4Cl stain buffer (20 mM NH4Cl, 115 mM NaCl, 1 mM MgSO4, 1 mM CaCl2, 5 mM KCl, 20 mMHEPES, 5 mM glucose; pH adjusted to 7.4 using 1 M NaOH) was added to the cells of each well, which contains 5 μM BCECF-AM. The cells were incubated with the stain solution at 37° C. in a CO2 incubator for 20 minutes. […]
# [1] = system: isolated beating rat heart; experiment: ischemia/reperfusion model (isolated beating rat heart); conditions: combination of the NBC blocker with the NHE inhibitor cariporide mesilate
residual activity [%] at 10 μM (heart form of human NBC1),Compound,cardioprotective action [1]
94%,"CC(C)CNS(=O)(=O)c1cc(C(=O)O)c(NCCCCc2ccccc2)cc1Cl [Example 21, 4-Chloro-5-(isobutylsulfamoyl)-2-phenylbutylaminobenzoic acid]",–
89%,4-Chloro-5-(cyclohexylmethylsulfamoyl)-2-phenylbutylaminobenzoic acid [Example 20],–
56%,"O=C(O)c1cc(S(=O)(=O)NCc2ccc(F)c(Cl)c2)c(Br)cc1NCCCCc1ccccc1 [Example 2, 4-Bromo-5-(3-chloro-4-fluorobenzylsulfamoyl)-2-phenylbutylaminobenzoic acid]",–
91%,"O=C(O)c1cc(S(=O)(=O)NCCc2ccc(Cl)cc2)c(Cl)cc1NCCCCc1ccccc1 [Example 16, 4-Chloro-5-[2-(4-chlorophenyl)ethylsulfamoyl]-2-phenylbutylaminobenzoic acid]",–
69%,"CCCc1cc(NCCCCc2ccccc2)c(C(=O)O)cc1S(=O)(=O)NCc1ccc(F)c(Cl)c1 [Example 6, 4-n-Propyl-5-(3-chloro-4-fluorobenzylsulfamoyl)-2-phenylbutylaminobenzoic acid]",–
78%,"CC(C)c1cc(NCCCCc2ccccc2)c(C(=O)O)cc1S(=O)(=O)NCc1ccc(F)c(Cl)c1 [Example 5, 4-isopropyl-5-(3-chloro-4-fluorobenzylsulfamoyl)-2-phenylbutylaminobenzoic acid]",–
88%,"O=C(O)c1cc(S(=O)(=O)NCc2ccc(F)c(Cl)c2)ccc1NCCCCc1ccccc1 [Example 3, 5-(3-Chloro-4-fluorobenzylsulfamoyl)-2-phenylbutylaminobenzoic acid]",–

# Continued, compound first:
Compound,residual activity [%] at 10 μM (heart form of human NBC1),cardioprotective action [1]
4-(4-Methylphenyl)-5-(3-chloro-4-fluorobenzylsulfamoyl)-2-phenylbutylaminobenzoic acid [Example 7],95%,–
"O=C(O)c1cc(S(=O)(=O)NCc2c(F)cccc2Cl)c(Cl)cc1NCCCCc1ccccc1 [Example 14, 4-Chloro-2-phenylbutylamino-5-(2-chloro-6-fluorobenzylsulfamoyl)benzoic acid]",87%,–
"NS(=O)(=O)c1ccc(CNS(=O)(=O)c2cc(C(=O)O)c(NCCCCc3ccccc3)cc2Cl)cc1 [Example 11, 4-Chloro-2-phenylbutylamino-5-(4-sulfamoylbenzylsulfamoyl)benzoic acid]",81%,–
"CCc1ccc(NS(=O)(=O)c2cc(C(=O)O)c(NCCCCc3ccccc3)cc2Cl)cc1 [Example 18, 4-Chloro-5-(4-ethylphenylsulfamoyl)-2-phenylbutylaminobenzoic acid]",79%,–
"O=C(O)c1cc(S(=O)(=O)NCc2ccccn2)c(Cl)cc1NCCCCc1ccccc1 [Example 9, 4-Chloro-2-phenylbutylamino-5-[(pyridin-2-ylmethyl)sulfamoyl]benzoic acid]",89%,–
"O=C(O)c1cc(S(=O)(=O)NCc2ccc(F)c(Cl)c2)c(Cl)cc1NCCCCc1ccccc1 [Example 1, 4-Chloro-5-(3-chloro-4-fluorobenzylsulfamoyl)-2-phenylbutylaminobenzoic acid]",46%,greater than additive cardioprotective action
4-Chloro-5-(phenylbutylsulfamoyl)-2-phenylbutylaminobenzoic Acid [Example 19],77%,–
"Cc1cc(NCCCCc2ccccc2)c(C(=O)O)cc1S(=O)(=O)NCc1ccc(F)c(Cl)c1 [Example 4, 4-Methyl-5-(3-chloro-4-fluorobenzylsulfamoyl)-2-phenylbutylaminobenzoic acid]",54%,–
"O=C(O)c1cc(S(=O)(=O)NCc2ccncc2)c(Cl)cc1NCCCCc1ccccc1 [Example 8, 4-Chloro-2-phenylbutylamino-5-[(pyridin-4-ylmethyl)sulfamoyl]benzoic acid]",89%,–
"O=C(O)c1cc(S(=O)(=O)NCCc2cccs2)c(Cl)cc1NCCCCc1ccccc1 [Example 17, 4-Chloro-2-phenylbutylamino-5-(2-thiophen-2-ylethylsulfamoyl)benzoic acid]",95%,–
"O=C(O)c1cc(S(=O)(=O)NCc2cccc(Cl)c2)c(Cl)cc1NCCCCc1ccccc1 [Example 10, 4-Chloro-2-phenylbutylamino-5-(3-chlorobenzylsulfamoyl)benzoic Acid]",75%,–
"O=C(O)c1cc(S(=O)(=O)NCc2cccc(Cl)c2Cl)c(Cl)cc1NCCCCc1ccccc1 [Example 12, 4-Chloro-2-phenylbutylamino-5-(2,3-dichlorobenzylsulfamoyl)benzoic acid]",37%,–
4-Chloro-5-[(5-methylfuran-2-ylmethyl)sulfamoyl]-2-phenylbutylaminobenzoic acid [Example 15],79%,–
"O=C(O)c1cc(S(=O)(=O)NCc2ccc(Cl)cc2Cl)c(Cl)cc1NCCCCc1ccccc1 [Example 13, 4-Chloro-2-phenylbutylamino-5-(2,4-dichlorobenzylsulfamoyl)benzoic acid]",60%,–
